# Test results taken from PubChem BioAssay AID1189 (EPA DSSTox, 2008).
# Calls of active or inactive are those of the source.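 Rule for the calls: active = a tumor-causing dose value with its tumor site reported for any sex and species group of a rodent or other animal cancer study; inconclusive = only studies judged inadequate by the national testing program; inactive = tested in at least one study, none positive.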 Numbered stars: 1 amine (or outer) side, 2 acyl side, 3 side chain; on linkers, the order of the positions; unused ones are H or OH. Bridge positions count the residues as written; N and C are the ends. Square brackets hold non-standard residues; d marks the D form. Peptide text beside a SMILES is read from it. I, II: the chains in the order shown. Actinocin(1to9) = Cc1c2oc3c(C)ccc(C(=O)[*:2])c3nc-2c(C(=O)[*:1])c(N)c1=O; d(aIle) = CC[C@H](C)[C@@H](N)C(=O)O; NMeV = CN[C@H](C(=O)O)C(C)C; Sar = CNCC(=O)O
# Experiment: DSSTox (CPDBAS) Carcinogenic Potency Database Summary SingleCellCall Results
# Conditions: animal chronic carcinogenicity bioassays, CPDB summary call
# Summary of the method: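 Categorical carcinogenicity call compiled from published chronic rodent and other animal cancer bioassays; based on the most positive result across experiments for each sex-species, assigned on minimal evidence for or against activity.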
row,SMILES,outcome
1,Cc1cccc2ccccc12,inactive; active
2,CC(=O)Nc1cccc2c1Cc1ccccc1-2,inactive; active
3,CN(C)Nc1nc(-c2ccc([N+](=O)[O-])o2)cs1,active; inactive
4,NNc1nc(-c2ccc([N+](=O)[O-])o2)cs1,active; inactive
5,CC(Oc1c(Cl)cccc1Cl)C1=NCCN1 (stereo unspecified),inactive
6,CC(C)(C)NCC(O)c1cc(O)cc(O)c1 (stereo unspecified),active
7,Nc1ccc2cc3ccc(N)cc3nc2c1,inactive
8,CN(C)c1ccccc1,active
9,NCC1(CC(=O)O)CCCCC1,active
10,CN(CCCC(O)c1cccnc1)N=O (stereo unspecified),active
11,CCN(CC)CCOc1ccc(/C(=C(\Cl)c2ccccc2)c2ccccc2)cc1,inactive; active
12,CCCCN(CCCC)N=O,active
13,CN(CCO)N=O,active
14,NCCCC(N)(C(=O)O)C(F)F (stereo unspecified),inactive
15,CC(C)(C)NCC(O)c1ccc(O)c(CO)c1 (stereo unspecified),active; inactive
16,COc1cc2c(c3c1c(=O)c1ccccc1n3C)C=CC(C)(C)O2,active; inactive
17,O=NN1CCSCC1,active
18,CC(=O)N[C@@H](CS)C(=O)O,inactive
19,O[C@@H]([C@H](O)[C@@H](O)CBr)[C@@H](O)CBr,active
20,ClC1=C(Cl)[C@]2(Cl)[C@@H]3[C@H]4C[C@H]([C@@H]5O[C@H]45)[C@@H]3[C@@]1(Cl)C2(Cl)Cl,inactive
21,OCl,inactive
22,COc1ccc2c(c1)c(CC(=O)O)c(C)n2C(=O)c1ccc(Cl)cc1,active; inactive
23,N[C@@H](CC(=O)O)C(=O)O,inactive; active
24,Cc1c(N)cccc1N,inactive
25,Clc1ccccc1,active; inactive
26,COc1cc(/C=C/C(=O)OCCc2ccccc2)ccc1O,inactive; active

row,SMILES,outcome
1,CCCCCNN,active
2,NNC=O,active
3,C=Cc1ccc(C)cc1,inactive
4,C/[N+]([O-])=N/CO[C@@H]1O[C@H](CO)[C@@H](O)[C@H](O)[C@H]1O,active
5,C=CCN=C=S,active; inactive
6,CC(C)=NO,active
7,C[C@H]1C(=O)O[C@@H]2CCN3CC=C(COC(=O)[C@](C)(O)[C@]1(C)O)[C@H]23,active
8,O=[N+]([O-])c1ccc2ncccc2c1,inactive; active
9,CN(N=O)c1ccncc1,inactive; active
10,"CC[C@H](C)[C@H]1NC(=O)[C@@H](NC(=O)c2c3nc4c(C(=O)N[C@@H]5C(=O)N[C@H](C(C)C)C(=O)N6CCC[C@H]6C(=O)N(C)CC(=O)N(C)[C@@H](C(C)C)C(=O)O[C@@H]5C)ccc(C)c4oc-3c(C)c(=O)c2N)[C@@H](C)OC(=O)[C@H](C(C)C)N(C)C(=O)CN(C)C(=O)[C@@H]2CCCN2C1=O (I: T[d(aIle)]P[Sar][NMeV] / II: T[dV]P[Sar][NMeV]; ester I:1-I:C, II:1-II:C; linker I:N-II:N via Actinocin(1to9))",inactive
11,C/C=C/C=C/C=O,active
12,N#CN=C(N)N,inactive; active
13,Nc1ccc2oc3ccccc3c2c1,active
14,O=NN1CCC(=O)NC1=O,active
15,CCCC[N+](=O)[O-],inactive
16,COc1cc(N)ccc1N=Nc1ccccc1,inactive; active
17,O=NN1CN2CN(C1)CN(N=O)C2,inactive
18,CNC[C@H](O)c1ccc(O)c(O)c1,inactive
19,Nc1ccc(-c2ccc(N)c(Cl)c2)cc1Cl,active
20,CCN(CC)C(=S)S,inactive; active
21,CC(C)Cc1ccc(C(C)C(=O)O)cc1 (stereo unspecified),inactive
22,C[C@@H]1CCCCN1N=O,active
23,COc1ccc(O)cc1,active
24,CCCCCCCCS(=O)C(C)Cc1ccc2c(c1)OCO2 (stereo unspecified),active
25,OC[C@H]1O[C@@](CO)(O[C@H]2O[C@H](CO)[C@@H](O)[C@H](O)[C@H]2O)[C@@H](O)[C@@H]1O,inactive
26,Cc1cc(O)c(C)c2c1OC(C)(CCCC(C)CCCC(C)CCCC(C)C)CC2 (stereo unspecified),active

row,SMILES,outcome
1,O=[N+]([O-])c1cccc2ccccc12,inactive
2,OC[C@H]1O[C@H](O[C@]2(CCl)O[C@H](CCl)[C@@H](O)[C@@H]2O)[C@H](O)[C@@H](O)[C@H]1Cl,inactive
3,C=CC(=O)OCC,active
4,ClC1=C(Cl)C2(Cl)C3C(Cl)OC(Cl)C3C1(Cl)C2(Cl)Cl (stereo unspecified),inactive
5,CCCCN(CCCCO)N=O,active; inactive
6,C/C=C(\C)C(=O)O[C@@H]1CCN2CC=C(COC(=O)C(O)(C(C)C)C(C)O)[C@H]12 (stereo partly specified),active
7,CCOP(=S)(OCC)Oc1ccc2c(C)c(Cl)c(=O)oc2c1,inactive
8,O=Cc1ccccc1,active
9,CCCCCCCN,inactive
10,CN1C(=O)C[C@@H](C(=O)N[C@@H](Cc2cnc[nH]2)C(=O)N2CCC[C@H]2C(N)=O)NC1=O,inactive; active
11,CC[N+]([O-])=NC,active
12,CCOP(=O)(CC1CO1)OCC (stereo unspecified),inactive
13,CC(C)NCC(O)COc1cccc2ccccc12 (stereo unspecified),inactive
14,Cn1cc(OCC(O)CNC(C)(C)C)c2ccccc2c1=O (stereo unspecified),inactive; active
15,C#CC(C)(C)NC(=O)c1cc(Cl)cc(Cl)c1,active
16,CO[C@H]1/C=C/O[C@@]2(C)Oc3c(C)c(O)c4c(O)c(c(/C=N/N5CCN(C)CC5)c(O)c4c3C2=O)NC(=O)/C(C)=C\C=C\[C@H](C)[C@H](O)[C@@H](C)[C@@H](O)[C@@H](C)[C@H](OC(C)=O)[C@@H]1C,active; inactive
17,CC(CCl)OC(C)CCl (stereo unspecified),active
18,O=C/C=C/c1ccccc1,inactive
19,CNN,active
20,CC(=O)OCc1ccccc1,active; inactive
21,NC(=O)CCCCC(N)=O,inactive; active
22,CCOC(=O)C(C)(C)Oc1ccc(Cl)cc1,active
23,CN(CCCC(=O)c1cccnc1)N=O,active
24,CC(N)=O,active; inactive
25,Nc1ccc(Cc2ccc(N)cc2)cc1,active; inactive
26,NC(=O)/C(=C\c1ccc([N+](=O)[O-])o1)c1ccco1,active

row,SMILES,outcome
1,O=C1C=C2C(=CCOC2O)O1 (stereo unspecified),inactive
2,CNC(=S)N(C)C,active
3,O=[O+][O-],active
4,CCCCOC(=O)c1ccc(O)cc1,inactive; active
5,CNC(=O)Oc1cc(C)c(N(C)C)c(C)c1,inactive
6,Cc1ccc(N)cc1,active
7,Cc1cccc(C)c1NC1=NCCCS1,inactive
8,CN(C)[C@@H]1C(=O)C(C(N)=O)=C(O)[C@@]2(O)C(=O)C3=C(O)c4c(O)cccc4[C@@](C)(O)[C@H]3C[C@@H]12,inactive
9,F,inactive
10,O=C1CCCCCN1,inactive
11,C[C@@H]1O[C@@H](OC[C@H]2O[C@@H](Oc3c(-c4ccc(O)c(O)c4)oc4cc(O)cc(O)c4c3=O)[C@H](O)[C@@H](O)[C@@H]2O)[C@H](O)[C@H](O)[C@H]1O,inactive
12,O=[N+]([O-])c1ccc2c3c(cccc13)CC2,active
13,c1ccc2[nH]ccc2c1,inactive
14,COC(=O)C1=CCCN(C)C1,active
15,CCOC(=O)[C@H](CCc1ccccc1)N[C@@H](C)C(=O)N1Cc2ccccc2C[C@H]1C(=O)O,inactive; active
16,COc1ccc(C(=O)/C(Br)=C\C(=O)O)cc1,active
17,Nc1ccc(NCCO)c([N+](=O)[O-])c1,inactive
18,NS(=O)(=O)c1cc(C(=O)O)c(NCc2ccco2)cc1Cl,active; inactive
19,O=c1c(O)c(-c2ccc(O)cc2)oc2cc(O)cc(O)c12,inactive
20,COc1ccccc1N1CCN(CCCNc2cc(=O)n(C)c(=O)n2C)CC1,inactive
21,CC(O)CN(C)c1ccc(NN)nn1 (stereo unspecified),inactive
22,C=CCc1ccc(OC)c(OC)c1,active; inactive
23,Cc1cc(C)nc(NS(=O)(=O)c2ccc(N)cc2)n1,active
24,O=NN1CCCCC1C(=O)O (stereo unspecified),inactive
25,c1ccc2c(c1)cc1ccc3cccc4ccc2c1c34,active; inactive
26,O=C1Nc2ccc(Cl)cc2C(c2ccccc2)=NC1O (stereo unspecified),active

row,SMILES,outcome
1,FCC(F)(F)F,active
2,C1CNCCN1,inactive
3,CN(C)CCN(Cc1cccs1)c1ccccn1,active
4,C=CCN(CC=C)N=O,active
5,C[C@]12CCC(=O)C=C1CC[C@@H]1[C@@H]2[C@@H](O)C[C@@]2(C)[C@H]1CC[C@]2(O)C(=O)CO,inactive
6,Nc1ccc(Oc2ccc(N)c(N)c2)cc1,active
7,O=[N+]([O-])c1ccc(O)c([N+](=O)[O-])c1,inactive
8,Cc1ccc(N)cc1Cl,inactive; active
9,CSCCC(N)C(=O)O (stereo unspecified),inactive
10,O=NN1CCCC1,active; inactive
11,O=C(O)/C=C/c1ccc(O)c(O)c1,active
12,C=CC(OCC)OCC,inactive
13,C=C(Cl)Cl,active
14,Clc1cccc(-c2cc(Cl)cc(Cl)c2)c1,active
15,O=C(Oc1ccccc1)Oc1ccccc1,inactive
16,ClC(Cl)=C(Cl)c1c(Cl)c(Cl)c(Cl)c(Cl)c1Cl,inactive
17,N#CC(c1ccccc1)c1ccccc1,inactive
18,CC[C@H]1OC(=O)[C@H](C)[C@@H](O[C@H]2C[C@@](C)(OC)[C@@H](O)[C@H](C)O2)[C@H](C)[C@@H](O[C@@H]2O[C@H](C)C[C@H](N(C)C)[C@H]2O)[C@](C)(O)C[C@@H](C)C(=O)[C@H](C)[C@@H](O)[C@]1(C)O,inactive; active
19,NNC(=O)c1ccncc1,active; inactive
20,ClCCOCCCl,active
21,NC(=O)Cc1c([O-])on[n+]1Cc1ccccc1,active; inactive
22,COc1ccc(OC)c(/C=C/c2ccc(N)cc2)c1,active
